Experimental data: patent US6461587B1, “Perfluoroalkylamides, their production and their use in diagnosis” (Schering Aktiengesellschaft, priority 1999, dated 2002)

Key:
[1] = Retention of the opacifying metal at the injection site; format: in vivo; settings: guinea pig, 10 μmol Gd/kg s.c.
Text: After s.c. administration of 10 μmol of total gadolinium/kg of body weight in the guinea pig paw, the retention of metal at the injection site was studied at different times.

[2] = Organ distribution of the contrast medium after s.c. administration; format: in vivo; settings: guinea pigs, 10 μmol Gd/kg s.c., 7 days after administration
Procedure: After subcutaneous administration of 10 μmol of total gadolinium/kg of body weight in the hind paw of stimulated guinea pigs (complete Freund adjuvant; 0.1 ml i.m in the right and left lower leg in each case; 2 weeks before the test are administered), the retention of the metal in the […] as in the kidneys and spleen was examined 7 days administration.

[3] = Relaxivity of compounds according to the invention; format: physicochemical; settings: 0.47 T and 37° C.
Text: Relaxivity of Compounds According to the Invention

[4] = Compatibility of compounds according to the invention (LD 50); settings: in vivo
Text: Compatibility of Compounds According to the Invention

[5] = Lymph node visualization (MRT) after interstitial administration of contrast medium; format: in vivo; settings: guinea pigs, 10 μmol of Gd/kg s.c., 15 or 30 minutes, T1-weighted gradient echo images
Procedure: MR images of popliteal, inguinal and iliac lymph nodes both before (Precontrast) and 15 or 30 minutes after subcutaneous administration (guinea pigs, hind paw, interdigital space) of the substance of Example 5e or of Example 3c (in each case 10 μmol of Gd/kg of body weight) were taken.

[6] = Blood level and pharmacokinetics after intravenous administration, in vivo comparison with Dy-DTPA; settings: rats, i.v. 100 μmol/kg; for Vd ss / α-t½ / β-t½: n=3; for blood concentrations compared with Dy-DTPA: all examination times 1-120 minutes p.i.
Procedure: Three 350 g male (Schering-SPF) rats are used as test animals. 0.33-0.37 ml (in each case 100 mmol/L) of the following contrast medium solution is administered intravenously to each animal: mixture of 1 part each of a perfluoroalkyl-containing compound and the dysprosium-complex of (Dy-DTPA). The administered dose is in each case 100 μmol of Gd or Dy/kg of body weight. Via a catheter in the common carotid artery, blood samples are taken at the following times: 1, 3, 5, 10, 15, 20, 30, 45, 60, 90, 120 minutes p.i. In the blood samples that are obtained, in each case the concentrations of gadolinium (Gd) and dysprosium (Dy) are measured in parallel using atomic emission spectrometry (ICP-AES). The proportion of the injected compounds (Gd-containing perfluoroalkyl-containing compound and Dy-containing comparison substance) that remains in the blood space can be compared in the same animal by the different labeling. The α- and β-half life, the distribution volume and the total clearance can be calculated from the blood concentrations using special software (Topfit program). […]

[7] = Table 2: plasma, mixture of 4c and Dy-DTPA
[8] = Table 1: plasma, mixture of 5e and Dy-DTPA

Row | Molecule | Gadolinium Content at the Injection Site (Paw) ([1]; 30 min. p.i.) | Gadolinium Content at the Injection Site (Paw) ([1]; 90 min. p.i.) | Gadolinium Content at the Injection Site (Paw) ([1]; 7 days p.i.) | Gadolinium Content in Kidneys [2] | Gadolinium Content in Liver [2] | Gadolinium Content in Spleen [2] | R1 in Plasma [3] | R1 in Water [3] | LD 50 [4] | MR signal in popliteal, inguinal and iliac lymph nodes of the injected body side vs non-injected side or precontrast [5] | Vd ss [6, 7] | α-t½ [6, 7] | β-t½ [6, 7] | distribution volume compared to Dy-DTPA [6] | blood concentrations compared with Dy-DTPA [6] | Vd ss [6, 8] | α-t½ [6, 8] | β-t½ [6, 8]
1 | 1,4,7-Tris(carboxylatomethyl)-10-{(3-aza-4-oxo-hexan-5-ylic)-acid- [N-4,7,10,17-tetraoxa-14-aza-17-oxo-C20-C28-hepta-decafluoro)-heptacosyl]-amide}-1,4,7,10-tetraazacyclododecane, gadolinium complex [Example 6b] | 66.4% of dose | 26.1% of dose | 0.6% of dose | 0.1% of dose | 1.5% of dose | 0.0% of dose | 13.3 L/mmol/s | 11.6 L/mmol/s | – | – | – | – | – | – | – | – | – | –
2 | COCCN(CCOCCC(F)(F)C(F)(F)C(F)(F)C(F)(F)C(F)(F)C(F)(F)C(F)(F)C(F)(F)F)C(=O)CNC(=O)C(C)N1CCN(CC(=O)[O-])CCN(CC(=O)[O-])CCN(CC(=O)[O-])CC1.[Gd+3] (stereo not shown) [Example 1c] | – | – | – | – | – | – | 25.7 L/mmol/s | 13.8 L/mmol/s | – | – | – | – | – | – | – | – | – | –
3 | CC(C(=O)NCC(=O)N(CCOCCC(F)(F)C(F)(F)C(F)(F)C(F)(F)C(F)(F)C(F)(F)C(F)(F)C(F)(F)F)CC(O)CO)N1CCN(CC(=O)[O-])CCN(CC(=O)[O-])CCN(CC(=O)[O-])CC1.[Gd+3] (stereo not shown) [Example 2c] | – | – | – | – | – | – | 19.6 L/mmol/s | 11.8 L/mmol/s | 3 mmol of Gd/kg of body weight | – | – | – | – | – | – | – | – | –
4 | CC(C(=O)NCC(=O)N(CCOCCO)CCOCCC(F)(F)C(F)(F)C(F)(F)C(F)(F)C(F)(F)C(F)(F)C(F)(F)C(F)(F)F)N1CCN(CC(=O)[O-])CCN(CC(=O)[O-])CCN(CC(=O)[O-])CC1.[Gd+3] (stereo not shown) [Example 3c] | 6.5% of dose | 4.9% of dose | 1.7% of dose | 0.1% of dose | 1.3% of dose | 0.0% of dose | 21.0 L/mmol/s | 14.0 L/mmol/s | 8 mmol of Gd/kg of body weight | strong signal increase | – | – | – | – | – | – | – | –
5 | CC(C(=O)NCC(=O)N(CCO)CCOCCC(F)(F)C(F)(F)C(F)(F)C(F)(F)C(F)(F)C(F)(F)C(F)(F)C(F)(F)F)N1CCN(CC(=O)[O-])CCN(CC(=O)[O-])CCN(CC(=O)[O-])CC1.[Gd+3] (stereo not shown) [Example 4c] | – | – | – | – | – | – | 21.9 L/mmol/s | 14.4 L/mmol/s | 0.3 mmol of Gd/kg of body weight | – | 0.12 ± 0.00 L/kg | 1.01 ± 0.32 min | 79.68 ± 12.26 min | significantly smaller distribution volume | significantly higher blood concentrations | – | – | –
6 | COCCOCCOCCOCCOCCN(CCOCCC(F)(F)C(F)(F)C(F)(F)C(F)(F)C(F)(F)C(F)(F)C(F)(F)C(F)(F)F)C(=O)CNC(=O)C(C)N1CCN(CC(=O)[O-])CCN(CC(=O)[O-])CCN(CC(=O)[O-])CC1.[Gd+3] (stereo not shown) [Example 5e] | 8.5% of dose | 9.4% of dose | – | – | – | – | 30.3 L/mmol/s | 12.4 L/mmol/s | 15 mmol of Gd/kg of body weight | strong signal increase | – | – | – | significantly smaller distribution volume | significantly higher blood concentrations | 0.16 ± 0.03 L/kg | 3.77 ± 0.75 min | 102.29 ± 24.48 min
7 | CC(C(=O)NCC(=O)NCCOCCC(F)(F)C(F)(F)C(F)(F)C(F)(F)C(F)(F)C(F)(F)C(F)(F)C(F)(F)F)N1CCN(CC(=O)[O-])CCN(CC(=O)[O-])CCN(CC(=O)[O-])CC1.[Gd+3] (stereo not shown) [Example 7, 1,4,7-Tris(carboxylatomethyl)-10-[-(3-aza-4-oxo-hexan-5-ylic)-acid-N-(1H,1H,2H,2H,4H,4H,5H,5H-3-oxa-perfluorotridecyl)-amide]-1,4,7, 10-tetraaza-cyclododecane, gadolinium complex] | 54.2% of dose | 36.8% of dose | 1.3% of dose | 0.2% of dose | 6.2% of dose | 0.0% of dose | 21.0 L/mmol/s | 18.1 L/mmol/s | – | – | – | – | – | – | – | – | – | –
8 | CC(C(=O)NCC(=O)NCCNS(=O)(=O)C(F)(F)C(F)(F)C(F)(F)C(F)(F)C(F)(F)C(F)(F)C(F)(F)C(F)(F)F)N1CCN(CC(=O)[O-])CCN(CC(=O)[O-])CCN(CC(=O)[O-])CC1.[Gd+3] (stereo not shown) [Example 10c, 1,4,7-Tris(carboxylatomethyl)-10-{(3-aza-4-oxo-hexan-5-ylic)-acid-N-[(2-perfluorooctylsulfonylamino)-ethyl]-amide}-1,4,7,10-tetraazacyclododecane, gadolinium complex] | – | – | – | – | – | – | 27.8 L/mmol/s | 21.6 L/mmol/s | – | – | – | – | – | – | – | – | – | –
9 | Dy-DTPA [reference compound] | – | – | – | – | – | – | – | – | – | – | 0.15 ± 0.03 L/kg | 0.89 ± 0.32 min | 21.37 ± 2.18 min | – | – | 0.29 ± 0.09 L/kg | 2.19 ± 0.59 min | 62.59 ± 37.47 min
